Results: patent US20250340557A1, “PYRIMIDINE DERIVATIVE” (ASKA PHARMACEUTICAL CO., LTD., priority 2022, published 2025)

These compounds were tested against T1, human mPGES-1 (Homo sapiens, UniProt O14684) (assay: Test for mPGES-1 inhibitory activity (microsomal enzyme, PGE2 EIA)). Settings: microsomes from COS-1 cells transfected with human mPGES-1 cDNA; substrate PGH2 1 μM; 4° C., 4 minutes; PGE2 measured by EIA; read-out: h mPGES1 IC50.
T1 construct: made in house; host or cells: COS-1 cells (transient transfection; microsomal fraction used as enzyme)
T1 sequence (O14684 1-152): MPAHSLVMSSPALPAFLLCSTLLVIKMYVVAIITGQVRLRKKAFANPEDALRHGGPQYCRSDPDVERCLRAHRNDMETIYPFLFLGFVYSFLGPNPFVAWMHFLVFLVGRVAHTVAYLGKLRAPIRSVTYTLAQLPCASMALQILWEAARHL
Assay type: biochemical
Method: Test Example 1: Test for mPGES-1 Inhibitory Activity
Microsomes were prepared from COS-1 cells transiently transfected with a plasmid containing human mPGES-1 cDNA, and used as mPGES-1 enzyme. The mPGES-1 enzyme was diluted with a sodium phosphate buffer (pH 7.2) containing reduced glutathione (2.5 mM) and EDTA (1 mM), DMSO or a DMSO solution of a test compound (final concentration of DMSO was 2%) was added to the enzyme, and the mixture was preincubated at 4° C. for 15 minutes. Then, PGH2 (Prostaglandin H2) as the substrate was added at a final concentration of 1 μM to start the enzymatic reaction, and after incubation at 4° C. for 4 minutes, a solution of ferric chloride (25 mM) and citric acid (50 mM) was added to terminate the enzymatic reaction. Generated PGE2 (Prostaglandin E2) was measured by using Prostaglandin E2 Express EIA Kit (Cayman Chemical). IC50 values were determined by using a standard method.

IC50	SMILES
< 1 nM	Cc1cc(=O)[nH]c(-c2c(C(F)(F)F)ccc(CNC(=O)C3CCN(c4ccc(C(F)(F)F)cn4)CC3)c2F)n1 [Example 34, N-[2-fluoro-3-(4-methyl-6-oxo-1,6-dihydropyrimidin-2-yl)-4-(trifluoromethyl)benzyl]-1-[5-(trifluoromethyl)pyridin-2-yl]piperidine-4-carboxamide]
11 nM	Cc1nc(-c2c(C(F)(F)F)ccc(CNC(=O)C3CCN(c4ccc(C(F)(F)F)cn4)CC3)c2F)[nH]c(=O)c1C [Example 35, N-[3-(4,5-dimethyl-6-oxo-1,6-dihydropyrimidin-2-yl)-2-fluoro-4-(trifluoromethyl)benzyl]-1-[5-(trifluoromethyl)pyridin-2-yl]piperidine-4-carboxamide]
15 nM	O=C(NCc1ccc(C(F)(F)F)c(-c2nc(C(F)(F)F)cc(=O)[nH]2)c1F)C1CCN(c2ccc(OC(F)(F)F)cn2)CC1 [Example 40, N-{2-fluoro-3-[6-oxo-4-(trifluoromethyl)-1,6-dihydropyrimidin-2-yl]-4-(trifluoromethyl)benzyl}-1-[5-(trifluoromethoxy)pyridin-2-yl]piperidine-4-carboxamide]
26 nM	O=C(NCc1ccc(C(F)(F)F)c(-c2nc3c(c(=O)[nH]2)CCC3)c1F)C1CCN(c2ccc(C(F)(F)F)cn2)CC1 [Example 41, N-[2-fluoro-3-(4-oxo-4,5,6,7-tetrahydro-3H-cyclopenta[d]pyrimidin-2-yl)-4-(trifluoromethyl)benzyl]-1-[5-(trifluoromethyl)pyridin-2-yl]piperidine-4-carboxamide]
21 nM	Cc1cc(=O)[nH]c(-c2c(C(F)(F)F)ccc(CNC(=O)C3CCN(c4ncc(C(F)(F)F)cc4F)CC3)c2F)n1 [Example 49, N-[2-fluoro-3-(4-methyl-6-oxo-1,6-dihydropyrimidin-2-yl)-4-(trifluoromethyl)benzyl]-1-[3-fluoro-5-(trifluoromethyl)pyridin-2-yl]piperidine-4-carboxamide]
15 nM	Cc1nc(-c2c(C(F)(F)F)ccc(CNC(=O)C3CCN(c4ncc(Cl)cc4F)CC3)c2F)[nH]c(=O)c1F [Example 52, 1-(5-chloro-3-fluoropyridin-2-yl)-N-[2-fluoro-3-(5-fluoro-4-methyl-6-oxo-1,6-dihydropyrimidin-2-yl)-4-(trifluoromethyl)benzyl]piperidine-4-carboxamide]
< 1 nM	O=C(NCc1ccc(C(F)(F)F)c(-c2nc(C(F)F)cc(=O)[nH]2)c1F)C1CCN(c2ncc(C(F)(F)F)cc2F)CC1 [Example 55, N-{3-[4-(difluoromethyl)-6-oxo-1,6-dihydropyrimidin-2-yl]-2-fluoro-4-(trifluoromethyl)benzyl}-1-[3-fluoro-5-(trifluoromethyl)pyridin-2-yl]piperidine-4-carboxamide]
21 nM	Cc1cc(=O)[nH]c(-c2c(C(F)(F)F)ccc(CNC(=O)C3(F)CCN(c4ccc(C(F)(F)F)cn4)CC3)c2F)n1 [Example 56, 4-fluoro-N-[2-fluoro-3-(4-methyl-6-oxo-1,6-dihydropyrimidin-2-yl)-4-(trifluoromethyl)benzyl]-1-[5-(trifluoromethyl)pyridin-2-yl]piperidine-4-carboxamide]
< 1 nM	CCc1nc(-c2c(C(F)(F)F)ccc(CNC(=O)C3CCN(c4ccc(Cl)cn4)CC3)c2F)[nH]c(=O)c1F [Example 57, 1-(5-chloropyridin-2-yl)-N-[3-(4-ethyl-5-fluoro-6-oxo-1,6-dihydropyrimidin-2-yl)-2-fluoro-4-(trifluoromethyl)benzyl]piperidine-4-carboxamide]

More lines, now with the values behind:

SMILES	IC50
O=C(NCc1ccc(Cl)c(-c2nc(C(F)(F)F)cc(=O)[nH]2)c1F)C1CCN(c2ccc(C(F)(F)F)cn2)CC1 [Example 32, N-{4-chloro-2-fluoro-3-[6-oxo-4-(trifluoromethyl)-1,6-dihydropyrimidin-2-yl]benzyl}-1-[5-(trifluoromethyl)pyridin-2-yl]piperidine-4-carboxamide]	< 1 nM
Cc1nc(-c2c(C(F)(F)F)ccc(CNC(=O)C3CCN(c4ccc(C(F)(F)F)cn4)CC3)c2F)[nH]c(=O)c1F [Example 33, N-[2-fluoro-3-(5-fluoro-4-methyl-6-oxo-1,6-dihydropyrimidin-2-yl)-4-(trifluoromethyl)benzyl]-1-[5-(trifluoromethyl)pyridin-2-yl]piperidine-4-carboxamide]	14 nM
O=C(NCc1ccc(C(F)(F)F)c(-c2nc(C(F)(F)F)cc(=O)[nH]2)c1F)C1CCN(c2cnc(C(F)(F)F)cn2)CC1 [Example 36, N-{2-fluoro-3-[6-oxo-4-(trifluoromethyl)-1,6-dihydropyrimidin-2-yl]-4-(trifluoromethyl)benzyl}-1-[5-(trifluoromethyl)pyrazin-2-yl]piperidine-4-carboxamide]	14 nM
O=C(NCc1ccc(C(F)(F)F)c(-c2nc(C(F)(F)F)cc(=O)[nH]2)c1F)C1CCN(c2ncc(Cl)cc2F)CC1 [Example 37, 1-(5-chloro-3-fluoropyridin-2-yl)-N-{2-fluoro-3-[6-oxo-4-(trifluoromethyl)-1,6-dihydropyrimidin-2-yl]-4-(trifluoromethyl)benzyl}piperidine-4-carboxamide]	18 nM
O=C(NCc1ccc(C(F)(F)F)c(-c2nc(C(F)(F)F)cc(=O)[nH]2)c1F)C1(F)CCN(c2ccc(C(F)(F)F)cn2)CC1 [Example 38, 4-fluoro-N-{2-fluoro-3-[6-oxo-4-(trifluoromethyl)-1,6-dihydropyrimidin-2-yl]-4-(trifluoromethyl)benzyl}-1-[5-(trifluoromethyl)pyridin-2-yl]piperidine-4-carboxamide]	7.8 nM
O=C(NCc1ccc(C(F)(F)F)c(-c2nc(C(F)(F)F)cc(=O)[nH]2)c1F)C1CCN(c2ncc(C(F)(F)F)cc2F)CC1 [Example 39, N-{2-fluoro-3-[6-oxo-4-(trifluoromethyl)-1,6-dihydropyrimidin-2-yl]-4-(trifluoromethyl)benzyl}-1-[3-fluoro-5-(trifluoromethyl)pyridin-2-yl]piperidine-4-carboxamide]	< 1 nM
CCc1nc(-c2c(C(F)(F)F)ccc(CNC(=O)C3CCN(c4ccc(C(F)(F)F)cn4)CC3)c2F)[nH]c(=O)c1F [Example 42, N-[3-(4-ethyl-5-fluoro-6-oxo-1,6-dihydropyrimidin-2-yl)-2-fluoro-4-(trifluoromethyl)benzyl]-1-[5-(trifluoromethyl)pyridin-2-yl]piperidine-4-carboxamide]	< 1 nM
Cc1nc(-c2c(C(F)(F)F)ccc(CNC(=O)C3CCN(c4ncc(Cl)cc4Cl)CC3)c2F)[nH]c(=O)c1F [Example 44, 1-(3,5-dichloropyridin-2-yl)-N-[2-fluoro-3-(5-fluoro-4-methyl-6-oxo-1,6-dihydropyrimidin-2-yl)-4-(trifluoromethyl)benzyl]piperidine-4-carboxamide]	< 1 nM
O=C(NCc1ccc(C(F)(F)F)c(-c2nc(C(F)F)cc(=O)[nH]2)c1F)C1CCN(c2ncc(Cl)cc2Cl)CC1 [Example 45, 1-(3,5-dichloropyridin-2-yl)-N-{3-[4-(difluoromethyl)-6-oxo-1,6-dihydropyrimidin-2-yl]-2-fluoro-4-(trifluoromethyl)benzyl}piperidine-4-carboxamide]	15 nM
Cc1cc(=O)[nH]c(-c2c(C(F)(F)F)ccc(CNC(=O)C3CCN(c4ncc(Cl)cc4Cl)CC3)c2F)n1 [Example 46, 1-(3,5-dichloropyridin-2-yl)-N-[2-fluoro-3-(4-methyl-6-oxo-1,6-dihydropyrimidin-2-yl)-4-(trifluoromethyl)benzyl]piperidine-4-carboxamide]	49 nM
Cc1nc(-c2c(C(F)(F)F)ccc(CNC(=O)C3CCN(c4ncc(C(F)(F)F)cc4F)CC3)c2F)[nH]c(=O)c1F [Example 48, N-[2-fluoro-3-(5-fluoro-4-methyl-6-oxo-1,6-dihydropyrimidin-2-yl)-4-(trifluoromethyl)benzyl]-1-[3-fluoro-5-(trifluoromethyl)pyridin-2-yl]piperidine-4-carboxamide]	< 1 nM
O=C(NCc1ccc(C(F)(F)F)c(-c2nc(C(F)(F)F)cc(=O)[nH]2)c1)C1CCN(c2ccc(C(F)(F)F)cn2)CC1 [Example 50, N-{3-[6-oxo-4-(trifluoromethyl)-1,6-dihydropyrimidin-2-yl]-4-(trifluoromethyl)benzyl}-1-[5-(trifluoromethyl)pyridin-2-yl]piperidine-4-carboxamide]	< 1 nM
Cc1nc(-c2c(C(F)(F)F)ccc(CNC(=O)C3(F)CCN(c4ccc(C(F)(F)F)cn4)CC3)c2F)[nH]c(=O)c1F [Example 51, 4-fluoro-N-[2-fluoro-3-(5-fluoro-4-methyl-6-oxo-1,6-dihydropyrimidin-2-yl)-4-(trifluoromethyl)benzyl]-1-[5-(trifluoromethyl)pyridin-2-yl]piperidine-4-carboxamide]	< 1 nM
Cc1cc(=O)[nH]c(-c2c(C(F)(F)F)ccc(CNC(=O)C3CCN(c4ccc(OC(F)(F)F)cn4)CC3)c2F)n1 [Example 53, N-[2-fluoro-3-(4-methyl-6-oxo-1,6-dihydropyrimidin-2-yl)-4-(trifluoromethyl)benzyl]-1-[5-(trifluoromethoxy)pyridin-2-yl]piperidine-4-carboxamide]	49 nM
